This note sets out measurements from patent publication US10870647B2, “Imidazopyridine derivative, method for preparing same, and pharmaceutical composition containing same as active ingredient for preventing or treating cancer” (DAEGU-GYEONGBUK MEDICAL INNOVATION FOUNDATION, priority 2016, dated 2020).

Experiment [1] deals with scanMAX Kinase assay panel. In words: Kinase selectivity, scanMAX Kinase assay panel (DiscoverX), % control at 1 uM. In kind it is binding. To be noted: 1 uM. How it is done: (§1) The following experiment was performed to evaluate the inhibitory activity of the compound of the present invention on more enzymes.
(§2) Particularly, among the compounds of the present invention, the compounds of Example 1, Example 12 and Example 78 were selected and assigned to DiscoverX to measure the kinase selectivity. The experiment was performed by using scanMAX™ Kinase assay panel.
(§3) At this time, the concentration of the drug to be treated to the enzyme was adjusted to 1 uM in DMSO, and the control percentage (% control) was determined according to the following Equation 1. [Example Compound−Positive Control/Negative Control−Positive Control]×100 [Equation 1]
(§4) The enzyme selectivity of the compound of the present invention was judged to be active for the enzyme if the % control was <35 (i.e. less than 35%) for each enzyme.

Experiment [2] has as its target T1, scanMAX Kinase assay panel (Homo sapiens, UniProt P42681).
T1 construct: purchased DiscoverX
T1 sequence (P42681 1-527): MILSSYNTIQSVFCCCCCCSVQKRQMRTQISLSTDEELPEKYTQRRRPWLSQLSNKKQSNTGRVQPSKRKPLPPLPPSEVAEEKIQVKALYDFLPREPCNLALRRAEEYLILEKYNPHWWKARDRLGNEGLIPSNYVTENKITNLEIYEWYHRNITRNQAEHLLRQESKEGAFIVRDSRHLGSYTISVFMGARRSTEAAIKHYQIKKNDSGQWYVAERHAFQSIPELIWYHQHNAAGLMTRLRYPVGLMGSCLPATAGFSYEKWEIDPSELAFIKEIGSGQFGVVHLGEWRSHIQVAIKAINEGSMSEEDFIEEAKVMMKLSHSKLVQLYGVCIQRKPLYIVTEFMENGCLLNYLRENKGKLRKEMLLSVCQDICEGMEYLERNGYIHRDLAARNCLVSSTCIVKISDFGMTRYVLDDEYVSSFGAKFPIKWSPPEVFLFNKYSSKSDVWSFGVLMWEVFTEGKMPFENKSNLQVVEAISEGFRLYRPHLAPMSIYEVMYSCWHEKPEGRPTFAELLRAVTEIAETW
The description is as above. The format is binding. To be noted: TXK; 1 uM; read-out: Percent Control (%). How it is done: as §1, §2, §3, §4

For the next experiment, the system named is M-NFS-60. The experiment is described as follows: Cancer cell proliferation inhibition, CCK-8, 72 hours. The format is cell-based. In a few lines:
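Cells were grown in RPMI with 10% FBS, 0.05 mM 2-mercaptoethanol and human M-CSF, and seeded at 20000 cells/well. Compounds were added from a 3-fold DMSO dilution series topping at 1968 nM (dilution-plate concentration; 11 points including DMSO control). After 72 h at 37 °C, CCK-8 was added for 2 h and OD450 read.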

For another experiment, the system named is K562. The description is as above. In kind it is cell-based. As to conditions: Homo sapiens, K562, 72 h. In a few lines:
(§5)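 A375 cells (2×10^3/well) attached overnight, then received 9 three-fold dilutions (0.0015-10 μM). K562 and Ba/F3-T315I (1×10^4/well) were given 9-point series (3-fold and 5-fold respectively), final 0-10 μM. After 72 h at 37°C, CCK-8 was added for 2 h; blank-subtracted OD450 gave IC50.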

The test system of another experiment is A375. Described as above. In kind it is cell-based. To be noted: Homo sapiens, A-375, 72 h. In a few lines: as §5
A further experiment addresses T2, T315I (Ba/F3) (Homo sapiens, UniProt P00519, T315I, cells depend on it).
T2 construct: fused on or other part: P11274 (Breakpoint cluster region protein)
The description is as above. In kind it is cell-based. To be noted: read-out: T315I (Ba/F3) IC50. In a few lines: as §5

A further experiment deals with MDA-MB-231. In words: Real time cell proliferation, IncuCyte ZOOM, 72 hours. As to conditions: Homo sapiens, MDA-MB-231, 72 h. The format is cell-based.

Take `Cc1ccc(C(=O)Nc2ccc(CN3CCN(C)CC3)c(C(F)(F)F)c2)cc1C#Cc1cnc2c(Nc3cnn(C)c3)cccn12` [Example 1, 4-methyl-3-((8-((1-methyl-1H-pyrazol-4-yl)amino)imidazo[1,2-a]pyridin-3-yl)ethynyl)-N-(4-((4-methylpiperazin-1-yl)methyl)-3-(trifluoromethyl)phenyl)benzamide]: the “Percent Control (%)” value in experiment [1] (EGFR (L747-E749del, A750P)) stood at 3%; in experiment [1] (EGFR (L747-S752del, P753S)), 1%; in experiment [1] (EGFR (L747-T751del, Sins)), 2%; in experiment [1] (FLT3 (ITD)), 1%; in experiment [1] (FLT3 (ITD, D835V)) it was 20%; in experiment [1] (FLT3 (ITD, F691L)), 2%. Further, in experiment [2], the remaining binding at 1 µM amounted to 1%. For the same molecule, the 50% inhibitory concentration (IC50) in the experiment on M-NFS-60 is 64.6 nM; with K562 it was under 1 nM; in the experiment with A375 it was 26 nM; in the experiment with MDA-MB-231 it was 187 nM. Moreover, the GI50 on T315I (Ba/F3) was 26 nM.

Take `CCN1CCN(Cc2ccc(NC(=O)c3ccc(C)c(C#Cc4cnc5c(Nc6cnn(C)c6)cccn45)c3)cc2C(F)(F)F)CC1` [Example 8, N-(4-((4-ethylpiperazin-1-yl)methyl)-3-(trifluoromethyl)phenyl)-4-methyl-3-((8-((1-methyl-1H-pyrazol-4-yl)amino)imidazo[1,2-a]pyridin-3-yl)ethynyl)benzamide]: the IC50 with M-NFS-60 is 34.1 nM; in the experiment on K562 it was under 1 nM; with A375 it was 52 nM; in the experiment on MDA-MB-231, 96 nM. Also, the GI50 on T315I (Ba/F3) is 32 nM.

In the case of `Cc1ccc(C(=O)Nc2cccc(C(F)(F)F)c2)cc1C#Cc1cnc2c(Nc3cnn(C4CCNCC4)c3)cccn12` [Example 11, 4-methyl-3-((8-((1-(piperidin-4-yl)-1H-pyrazol-4-yl)amino)imidazo[1,2-a]pyridin-3-yl)ethynyl)-N-(3-(trifluoromethyl)phenyl)benzamide], the IC50 in the experiment on M-NFS-60 was 30.8 nM; with K562, under 1 nM; in the experiment with A375, 1250 nM; with MDA-MB-231, 679 nM. Also, the GI50 on T315I (Ba/F3) turned out to be 6.34 nM.

With `Cc1cn(-c2cc(NC(=O)c3ccc(C)c(C#Cc4cnc5c(Nc6cnn(C)c6)cccn45)c3)cc(C(F)(F)F)c2)cn1` [Example 12, 4-methyl-N-(3-(4-methyl-1H-imidazol-1-yl)-5-(trifluoromethyl)phenyl)-3-((8-((1-methyl-1H-pyrazol-4-yl)amino)imidazo[1,2-a]pyridin-3-yl)ethynyl)benzamide], the “Percent Control (%)” value in experiment [1] (EGFR (L747-E749del, A750P)) was 5%; in experiment [1] (EGFR (L747-S752del, P753S)), 6%; in experiment [1] (EGFR (L747-T751del, Sins)) it was 6%; in experiment [1] (FLT3 (ITD)), 4%; in experiment [1] (FLT3 (ITD, D835V)), 100%; in experiment [1] (FLT3 (ITD, F691L)), 45%. In experiment [2], the remaining binding at 1 µM amounted to 3%. For the same molecule, the half-inhibitory concentration (IC50) is 247 nM in the experiment with M-NFS-60, under 1 nM in the experiment on K562, 942 nM with A375 and 1190 nM in the experiment on MDA-MB-231. On T315I (Ba/F3), the GI50 is 6.72 nM.

`Cc1ccc(NC(=O)C2(C(=O)Nc3ccc(F)cc3)CC2)cc1C#Cc1cnc2c(Nc3cnn(C(C)C)c3)cccn12` [Example 78]: the “Percent Control (%)” value came to 100% in experiment [1] (EGFR (L747-E749del, A750P)); 87% in experiment [1] (EGFR (L747-S752del, P753S)); 100% in experiment [1] (EGFR (L747-T751del, Sins)); 71% in experiment [1] (FLT3 (ITD)); 35% in experiment [1] (FLT3 (ITD, D835V)); 31% in experiment [1] (FLT3 (ITD, F691L)). In addition, in experiment [2], the remaining binding at 1 µM is 91%. In addition, the IC50 in the experiment with M-NFS-60 was determined as 672 nM; in the experiment on K562, 1200 nM; with A375, 4600 nM; in the experiment on MDA-MB-231 it was 8780 nM. Also, at T315I (Ba/F3), the GI50 came to 3240 nM.
